For orientation: IC50 means the midpoint of a concentration-inhibition curve.

The assay deals with HSD17B13 (Homo sapiens (Human), UniProt Q7Z5P4). In words: HSD17B13 enzymatic inhibition assay (150 nM or 50 nM HSD17B13). The assay is classed as biochemical. The following applies: 50 nM HSD17B13; read-out: Inhibition of 50 nM of HSD17B13 IC50.
HSD17B13, sequence (Q7Z5P4 other isoform, or with tags, fused parts or gaps): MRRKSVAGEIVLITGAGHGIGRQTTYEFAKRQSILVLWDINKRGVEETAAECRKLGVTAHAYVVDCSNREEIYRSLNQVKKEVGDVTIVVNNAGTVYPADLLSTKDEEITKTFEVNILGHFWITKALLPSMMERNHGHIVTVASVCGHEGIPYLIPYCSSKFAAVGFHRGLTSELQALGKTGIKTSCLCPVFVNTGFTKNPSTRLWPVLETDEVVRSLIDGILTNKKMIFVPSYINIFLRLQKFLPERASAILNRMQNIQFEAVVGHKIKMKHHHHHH
For `CCc1ccc(C(=O)NC2c3ccccc3-c3ccccc32)c(=O)[nH]1` [Compound 212, 6-ethyl-N-(9H-fluoren-9-yl)-2-oxo-1,2-dihydropyridine-3-carboxamide], the IC50 was greater than 10000 nM. For `Cc1cc(C(F)(F)F)[nH]c(=O)c1C(=O)NC1c2ccccc2-c2ccccc21` [Compound 213, N-(9H-fluoren-9-yl)-4-methyl-2-oxo-6-(trifluoromethyl)-1,2-dihydropyridine-3-carboxamide], the IC50 was determined as 2240 nM. Consider `Cc1c(C(F)(F)F)[nH]c(=O)c(C(=O)NC2c3ccccc3-c3ccccc32)c1C` [Compound 214, N-(9H-fluoren-9-yl)-4,5-dimethyl-2-oxo-6-(trifluoromethyl)-1,2-dihydropyridine-3-carboxamide], for which the IC50 is greater than 10000 nM. Consider `O=C(NCc1ccc(Cl)cc1Oc1cccc(Cl)c1)c1ccc(C(F)(F)F)[nH]c1=O` [Compound 216, N-(4-chloro-2-(3-chlorophenoxy)benzyl)-2-oxo-6-(trifluoromethyl)-1,2-dihydropyridine-3-carboxamide], for which the IC50 worked out at 3190 nM. For `O=C(NCC1c2ccccc2-c2ccccc21)c1ccc(C(F)(F)F)[nH]c1=O` [Compound 217, N-((9H-fluoren-9-yl)methyl)-2-oxo-6-(trifluoromethyl)-1,2-dihydropyridine-3-carboxamide], the IC50 worked out at 8310 nM. Regarding `Cc1ccc(C(C)NC(=O)c2ccc(C(F)(F)F)[nH]c2=O)cc1` (stereo not shown) [Compound 218], the IC50 was 9550 nM. As for `O=C(NC(c1ccc(Cl)cc1)c1ccncn1)c1ccc(C(F)(F)F)[nH]c1=O` (stereo not shown) [Compound 219, N-((4-chlorophenyl)(pyrimidin-4-yl)methyl)-2-oxo-6-(trifluoromethyl)-1,2-dihydropyridine-3-carboxamide], the IC50 is greater than 10000 nM. `O=C(NC(c1ccc(Cl)cc1)c1cncnc1)c1ccc(C(F)(F)F)[nH]c1=O` (stereo not shown) [Compound 220, N-((4-chlorophenyl)(pyrimidin-5-yl)methyl)-2-oxo-6-(trifluoromethyl)-1,2-dihydropyridine-3-carboxamide]: the IC50 was greater than 10000 nM. For `O=C(NC(c1ccccc1)c1cccc(=O)[nH]1)c1ccc(C(F)(F)F)[nH]c1=O` (stereo not shown) [Compound 221, 2-oxo-N-((6-oxo-1,6-dihydropyridin-2-yl)(phenyl)methyl)-6-(trifluoromethyl)-1,2-dihydropyridine-3-carboxamide], the IC50 is 6400 nM. Consider `CC(NC(=O)c1ccc(C(F)(F)F)[nH]c1=O)c1ccc(Cl)cc1Oc1cccc(Cl)c1` (stereo not shown) [Compound 222, N-(1-(4-chloro-2-(3-chlorophenoxy)phenyl)ethyl)-2-oxo-6-(trifluoromethyl)-1,2-dihydropyridine-3-carboxamide], for which the IC50 is 2170 nM.

In the case of `O=C(Nc1cccc(O)c1)c1ccc(C(F)(F)F)[nH]c1=O` [Compound 224, N-(3-hydroxyphenyl)-2-oxo-6-(trifluoromethyl)-1,2-dihydropyridine-3-carboxamide], the IC50 is greater than 10000 nM.

Consider `CCc1cccc(NC(=O)c2ccc(C(F)(F)F)[nH]c2=O)c1` [Compound 225, N-(3-ethylphenyl)-2-oxo-6-(trifluoromethyl)-1,2-dihydropyridine-3-carboxamide], for which the IC50 was determined as 4650 nM. Regarding `Cc1cccc(NC(=O)c2ccc(C(F)(F)F)[nH]c2=O)c1` [Compound 226, 2-oxo-N-(m-tolyl)-6-(trifluoromethyl)-1,2-dihydropyridine-3-carboxamide], the IC50 turned out to be 8050 nM. As for `O=C(Nc1cccc(Cl)c1)c1ccc(C(F)(F)F)[nH]c1=O` [Compound 227, N-(3-chlorophenyl)-2-oxo-6-(trifluoromethyl)-1,2-dihydropyridine-3-carboxamide], the IC50 was found to be 9850 nM. As to `O=C(Nc1cccc2cc(O)ccc12)c1ccc(C(F)(F)F)[nH]c1=O` [Compound 229, N-(6-hydroxynaphthalen-1-yl)-2-oxo-6-(trifluoromethyl)-1,2-dihydropyridine-3-carboxamide], the IC50 is 1400 nM. For `Cc1ccc2c(c1O)CCCC2NC(=O)c1ccc(C(F)(F)F)[nH]c1=O` (stereo not shown) [Compound 231, N-(5-hydroxy-6-methyl-1,2,3,4-tetrahydronaphthalen-1-yl)-2-oxo-6-(trifluoromethyl)-1,2-dihydropyridine-3-carboxamide], the IC50 turned out to be 30 nM. Consider `COc1c(C)ccc2c1CCCC2NC(=O)c1ccc(C(F)(F)F)[nH]c1=O` (stereo not shown) [Compound 232, N-(5-methoxy-6-methyl-1,2,3,4-tetrahydronaphthalen-1-yl)-2-oxo-6-(trifluoromethyl)-1,2-dihydropyridine-3-carboxamide], for which the IC50 was 2690 nM. Then `Cc1ccc2c(c1)C(NC(=O)c1ccc(C(F)(F)F)[nH]c1=O)CCO2` (stereo not shown) [Compound 233, N-(6-methylchroman-4-yl)-2-oxo-6-(trifluoromethyl)-1,2-dihydropyridine-3-carboxamide], with 1320 nM. Regarding `Cc1ccc2c(c1)C(NC(=O)c1ccc(C(F)(F)F)[nH]c1=O)CCS2` (stereo not shown) [Compound 236, N-(6-methylthiochroman-4-yl)-2-oxo-6-(trifluoromethyl)-1,2-dihydropyridine-3-carboxamide], the IC50 was 740 nM. Then `Cc1ccc2c(c1)C(NC(=O)c1ccc(C(F)(F)F)[nH]c1=O)CC2` (stereo not shown) [Compound 237, N-(6-methyl-2,3-dihydro-1H-inden-1-yl)-2-oxo-6-(trifluoromethyl)-1,2-dihydropyridine-3-carboxamide], with 490 nM; and `Cc1ccc2c(c1)CCC2NC(=O)c1ccc(C(F)(F)F)[nH]c1=O` (stereo not shown) [Compound 238, N-(5-methyl-2,3-dihydro-1H-inden-1-yl)-2-oxo-6-(trifluoromethyl)-1,2-dihydropyridine-3-carboxamide], with 680 nM; and `COc1ccc2c(c1)Oc1cc(OC)ccc1C2NC(=O)c1cc(-c2ccccc2)c(C(F)(F)F)[nH]c1=O` [Compound 239, N-(3,6-dimethoxy-9H-xanthen-9-yl)-2-oxo-5-phenyl-6-(trifluoromethyl)-1,2-dihydropyridine-3-carboxamide], with 100 nM. In the case of `COc1ccc2c(c1)Oc1cc(OC)ccc1C2NC(=O)c1cc(C)c(C(F)(F)F)[nH]c1=O` [Compound 240, N-(3,6-dimethoxy-9H-xanthen-9-yl)-5-methyl-2-oxo-6-(trifluoromethyl)-1,2-dihydropyridine-3-carboxamide] it was 110 nM.

For `COc1ccc2c(c1)Sc1ccccc1C2NC(=O)c1ccc(C(F)(F)F)[nH]c1=O` (stereo not shown) [Compound 242, N-(3-methoxy-9H-thioxanthen-9-yl)-2-oxo-6-(trifluoromethyl)-1,2-dihydropyridine-3-carboxamide], the IC50 was determined as 70 nM. With `COc1ccccc1C(NC(=O)c1ccc(C(F)(F)F)[nH]c1=O)c1cccc(C)c1` (stereo not shown) [Compound 243, N-((2-methoxyphenyl)(m-tolyl)methyl)-2-oxo-6-(trifluoromethyl)-1,2-dihydropyridine-3-carboxamide], the IC50 was 2160 nM. In the case of `COc1ccccc1C(NC(=O)c1ccc(C(F)(F)F)[nH]c1=O)c1ccc(C)cc1` (stereo not shown) [Compound 244, N-((2-methoxyphenyl)(p-tolyl)methyl)-2-oxo-6-(trifluoromethyl)-1,2-dihydropyridine-3-carboxamide] it was 290 nM; in that of `CSc1ccccc1C(NC(=O)c1ccc(C(F)(F)F)[nH]c1=O)c1cccc(C)c1` (stereo not shown) [Compound 245, N-((2-(methylthio)phenyl)(m-tolyl)methyl)-2-oxo-6-(trifluoromethyl)-1,2-dihydropyridine-3-carboxamide], 1080 nM. Then `CSc1ccccc1C(NC(=O)c1ccc(C(F)(F)F)[nH]c1=O)c1ccc(C)cc1` (stereo not shown) [Compound 246, N-((2-(methylthio)phenyl)(p-tolyl)methyl)-2-oxo-6-(trifluoromethyl)-1,2-dihydropyridine-3-carboxamide], with 300 nM.

With `CSc1c(C)cccc1C(NC(=O)c1ccc(C(F)(F)F)[nH]c1=O)c1ccccc1` (stereo not shown) [Compound 247, N-((3-methyl-2-(methylthio)phenyl)(phenyl)methyl)-2-oxo-6-(trifluoromethyl)-1,2-dihydropyridine-3-carboxamide], the IC50 was 930 nM. In the case of `Cc1ccc2c(c1)C(NC(=O)c1ccc(C(F)(F)F)[nH]c1=O)c1ccccc1S2` (stereo not shown) [Compound 248, N-(2-methyl-9H-thioxanthen-9-yl)-2-oxo-6-(trifluoromethyl)-1,2-dihydropyridine-3-carboxamide], the IC50 turned out to be 300 nM. With `O=C(NC1c2ccccc2Sc2ccc(Cl)cc21)c1ccc(C(F)(F)F)[nH]c1=O` (stereo not shown) [Compound 249, N-(2-chloro-9H-thioxanthen-9-yl)-2-oxo-6-(trifluoromethyl)-1,2-dihydropyridine-3-carboxamide], the IC50 was 390 nM. Turning to `O=C(NC1c2ccc(Cl)cc2Sc2cc(Cl)ccc21)c1ccc(C(F)(F)F)[nH]c1=O` [Compound 250, N-(3,6-dichloro-9H-thioxanthen-9-yl)-2-oxo-6-(trifluoromethyl)-1,2-dihydropyridine-3-carboxamide], the IC50 came out at 60 nM. As to `O=C(NC1c2ccc(Cl)cc2Sc2cccc(Cl)c21)c1ccc(C(F)(F)F)[nH]c1=O` (stereo not shown) [Compound 251, N-(1,6-dichloro-9H-thioxanthen-9-yl)-2-oxo-6-(trifluoromethyl)-1,2-dihydropyridine-3-carboxamide], the IC50 is 650 nM.

Regarding `Cc1ccc2c(c1)Sc1cccc(C)c1C2NC(=O)c1ccc(C(F)(F)F)[nH]c1=O` (stereo not shown) [Compound 253, N-(1,6-dimethyl-9H-thioxanthen-9-yl)-2-oxo-6-(trifluoromethyl)-1,2-dihydropyridine-3-carboxamide], the half-maximal inhibitory concentration (IC50) is 4270 nM. For `O=C(NC1c2ccc(Cl)cc2Oc2cccc(Cl)c21)c1ccc[nH]c1=O` (stereo not shown) [Compound 254, N-(1,6-dichloro-9H-xanthen-9-yl)-2-oxo-1,2-dihydropyridine-3-carboxamide], the IC50 was greater than 10000 nM. For the molecule `O=C(NC1c2ccc(Cl)cc2Oc2cc(Cl)ccc21)c1ccc[nH]c1=O` [Compound 255, N-(3,6-dichloro-9H-xanthen-9-yl)-2-oxo-1,2-dihydropyridine-3-carboxamide], the IC50 is greater than 10000 nM.

With `COc1cc(C)cc2c1CCC2NC(=O)c1ccc(C(F)(F)F)[nH]c1=O` (stereo not shown) [Compound 256, N-(4-methoxy-6-methyl-2,3-dihydro-1H-inden-1-yl)-2-oxo-6-(trifluoromethyl)-1,2-dihydropyridine-3-carboxamide], the IC50 is greater than 10000 nM.

(Values after patent US11957687B2 (REGENERON PHARMACEUTICALS, INC., priority 2019, dated 2024).)
